Results published in PubChem BioAssay AID1963423 (Molecular Pharmacology Branch, DTP, NCI, 2024).
pIC50: −log10 of the molar value.

Tested on: 439559-082-T-J2-PDC complex spheroid growth
Experiment: Anticancer human tumor 439559-082-T-J2-PDC patient-derived colon adenocarcinoma cell line growth inhibition [Asc]
Settings: for pIC50: curve of first compound; for viability, T/C: stronger effect = lower value
Procedure, shortened: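 Complex solid-tumor spheroids incorporating human endothelial and mesenchymal stem cells received single agents or combinations over half-log dilution ranges anchored to clinical Cmax.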

[1] = second compound 0.03 µM, first compound 0.00316 µM
[2] = second compound 0.03 µM, first compound 0.01 µM
[3] = second compound 0.03 µM, first compound 0.0316 µM
[4] = second compound 0.03 µM, first compound 0.1 µM
[5] = second compound 0.0949 µM, first compound 0.00316 µM
[6] = second compound 0.0949 µM, first compound 0.01 µM
[7] = second compound 0.0949 µM, first compound 0.0316 µM
[8] = second compound 0.0949 µM, first compound 0.1 µM
[9] = second compound 0.3 µM, first compound 0.00316 µM
[10] = second compound 0.3 µM, first compound 0.01 µM
[11] = second compound 0.3 µM, first compound 0.0316 µM
[12] = second compound 0.3 µM, first compound 0.1 µM
[13] = second compound 0.949 µM, first compound 0.00316 µM
[14] = second compound 0.949 µM, first compound 0.01 µM
[15] = second compound 0.949 µM, first compound 0.0316 µM
[16] = second compound 0.949 µM, first compound 0.1 µM
[17] = second compound 3 µM, first compound 0.00316 µM
[18] = second compound 3 µM, first compound 0.01 µM
[19] = second compound 3 µM, first compound 0.0316 µM
[20] = second compound 3 µM, first compound 0.1 µM
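Also: spheroids exposed to agents for 7 days starting day 3 after seeding.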
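For viability, T/C in this document: percent of DMSO vehicle control viability with 100% = vehicle.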

How did the pIC50 (second compound 0.03 µM) turn out when CCN1CCN(Cc2ccc(Nc3ncc(F)c(-c4cc(F)c5nc(C)n(C(C)C)c5c4)n3)nc2)CC1 + CCN1C(C(=O)NC23CCC(C(=O)O)(CC2)CC3)C(c2cccc(Cl)c2F)C2(C(=O)Nc3cc(Cl)ccc32)C12CCCCC2 was run?
Its pIC50 is under 6.00.

What about the pIC50 (second compound 0.0949 µM) of the same compound?
The pIC50 was under 6.00.

And the pIC50 (second compound 0.3 µM)?
Its pIC50 is under 6.00.

And the pIC50 (second compound 0.949 µM)?
Its pIC50 is under 6.00.

What about the pIC50 (second compound 3 µM) of the same compound?
The pIC50 was under 6.00.

What about the viability, T/C [1] of the same compound?
The viability, T/C was 107%.

And the viability, T/C [2]?
The viability, T/C was 105%.

And the viability, T/C [3]?
Its viability, T/C is 94.4%.

What about the viability, T/C [4] of the same compound?
The viability, T/C was 88.9%.

And the viability, T/C (second compound 0.03 µM, first compound 0.316 µM)?
The viability, T/C was 85.7%.

And the viability, T/C (second compound 0.03 µM, first compound 1 µM)?
Its viability, T/C is 83%.

What about the viability, T/C [5] of the same compound?
The viability, T/C was 104%.

What about the viability, T/C [6] of the same compound?
Its viability, T/C is 107%.

And the viability, T/C [7]?
Its viability, T/C is 98.8%.

And the viability, T/C [8]?
Its viability, T/C is 80.7%.

What about the viability, T/C (second compound 0.0949 µM, first compound 0.316 µM) of the same compound?
Its viability, T/C is 94%.

What about the viability, T/C (second compound 0.0949 µM, first compound 1 µM) of the same compound?
Its viability, T/C is 84.8%.

And the viability, T/C [9]?
The viability, T/C was 99.1%.

And the viability, T/C [10]?
Its viability, T/C is 106%.

And the viability, T/C [11]?
Its viability, T/C is 115%.

What about the viability, T/C [12] of the same compound?
Its viability, T/C is 87.2%.

What about the viability, T/C (second compound 0.3 µM, first compound 0.316 µM) of the same compound?
The viability, T/C was 86.8%.

And the viability, T/C (second compound 0.3 µM, first compound 1 µM)?
The viability, T/C was 85%.

What about the viability, T/C [13] of the same compound?
Its viability, T/C is 99.2%.

What about the viability, T/C [14] of the same compound?
The viability, T/C was 102%.

And the viability, T/C [15]?
The viability, T/C was 114%.

What about the viability, T/C [16] of the same compound?
Its viability, T/C is 93.5%.

What about the viability, T/C (second compound 0.949 µM, first compound 0.316 µM) of the same compound?
The viability, T/C was 96.7%.

What about the viability, T/C (second compound 0.949 µM, first compound 1 µM) of the same compound?
Its viability, T/C is 90%.

And the viability, T/C [17]?
Its viability, T/C is 87.5%.

And the viability, T/C [18]?
Its viability, T/C is 94%.

And the viability, T/C [19]?
Its viability, T/C is 105%.

What about the viability, T/C [20] of the same compound?
The viability, T/C was 80.7%.

What about the viability, T/C (second compound 3 µM, first compound 0.316 µM) of the same compound?
Its viability, T/C is 87%.

What about the viability, T/C (second compound 3 µM, first compound 1 µM) of the same compound?
The viability, T/C was 84.7%.

What does the source list for NC(=O)C(=Cn1cnc(-c2cc(C(F)(F)F)cc(C(F)(F)F)c2)n1)c1cncnc1 + CCN1C(C(=O)NC23CCC(C(=O)O)(CC2)CC3)C(c2cccc(Cl)c2F)C2(C(=O)Nc3cc(Cl)ccc32)C12CCCCC2?
pIC50 (second compound 0.03 µM): < 6.52; pIC50 (second compound 0.0949 µM): < 6.52; pIC50 (second compound 0.3 µM): < 6.52; pIC50 (second compound 0.949 µM): < 6.52; pIC50 (second compound 3 µM): < 6.52; viability, T/C (second compound 0.03 µM, first compound 0.000949 µM): 96.7%; viability, T/C (second compound 0.03 µM, first compound 0.003 µM): 103%; viability, T/C (second compound 0.03 µM, first compound 0.00949 µM): 103%; viability, T/C (second compound 0.03 µM, first compound 0.03 µM): 90.9%; viability, T/C (second compound 0.03 µM, first compound 0.0949 µM): 95.2%; viability, T/C (second compound 0.03 µM, first compound 0.3 µM): 81.9%; viability, T/C (second compound 0.0949 µM, first compound 0.000949 µM): 98.5%; viability, T/C (second compound 0.0949 µM, first compound 0.003 µM): 113%; viability, T/C (second compound 0.0949 µM, first compound 0.00949 µM): 107%; viability, T/C (second compound 0.0949 µM, first compound 0.03 µM): 83.2%; viability, T/C (second compound 0.0949 µM, first compound 0.0949 µM): 89.4%; viability, T/C (second compound 0.0949 µM, first compound 0.3 µM): 83.3%; viability, T/C (second compound 0.3 µM, first compound 0.000949 µM): 106%; viability, T/C (second compound 0.3 µM, first compound 0.003 µM): 102%; viability, T/C (second compound 0.3 µM, first compound 0.00949 µM): 105%; viability, T/C (second compound 0.3 µM, first compound 0.03 µM): 88.2%; viability, T/C (second compound 0.3 µM, first compound 0.0949 µM): 93.2%; viability, T/C (second compound 0.3 µM, first compound 0.3 µM): 80.8%; viability, T/C (second compound 0.949 µM, first compound 0.000949 µM): 105%; viability, T/C (second compound 0.949 µM, first compound 0.003 µM): 104%; viability, T/C (second compound 0.949 µM, first compound 0.00949 µM): 110%; viability, T/C (second compound 0.949 µM, first compound 0.03 µM): 90.3%; viability, T/C (second compound 0.949 µM, first compound 0.0949 µM): 88.6%; viability, T/C (second compound 0.949 µM, first compound 0.3 µM): 86.8%; viability, T/C (second compound 3 µM, first compound 0.000949 µM): 87.3%; viability, T/C (second compound 3 µM, first compound 0.003 µM): 93.2%; viability, T/C (second compound 3 µM, first compound 0.00949 µM): 96.6%; viability, T/C (second compound 3 µM, first compound 0.03 µM): 87.5%; viability, T/C (second compound 3 µM, first compound 0.0949 µM): 75%; viability, T/C (second compound 3 µM, first compound 0.3 µM): 67.7%

NC1CCC(NC2CC2c2ccccc2)CC1 (stereo not given) + CCN1C(C(=O)NC23CCC(C(=O)O)(CC2)CC3)C(c2cccc(Cl)c2F)C2(C(=O)Nc3cc(Cl)ccc32)C12CCCCC2 was tested. Which pIC50 (second compound 0.03 µM) did it give?
The pIC50 was under 7.00.

What about the pIC50 (second compound 0.0949 µM) of the same compound?
Its pIC50 is under 7.00.

And the pIC50 (second compound 0.3 µM)?
The pIC50 was under 7.00.

And the pIC50 (second compound 0.949 µM)?
Its pIC50 is under 7.00.

What about the pIC50 (second compound 3 µM) of the same compound?
Its pIC50 is under 7.00.

What about the viability, T/C (second compound 0.03 µM, first compound 0.000316 µM) of the same compound?
Its viability, T/C is 95.4%.

What about the viability, T/C (second compound 0.03 µM, first compound 0.001 µM) of the same compound?
The viability, T/C was 107%.

And the viability, T/C [1]?
The viability, T/C was 119%.

What about the viability, T/C [2] of the same compound?
Its viability, T/C is 95.5%.

And the viability, T/C [3]?
The viability, T/C was 102%.

What about the viability, T/C [4] of the same compound?
Its viability, T/C is 99.7%.

And the viability, T/C (second compound 0.0949 µM, first compound 0.000316 µM)?
The viability, T/C was 105%.

What about the viability, T/C (second compound 0.0949 µM, first compound 0.001 µM) of the same compound?
Its viability, T/C is 111%.

What about the viability, T/C [5] of the same compound?
Its viability, T/C is 123%.

And the viability, T/C [6]?
The viability, T/C was 100%.

What about the viability, T/C [7] of the same compound?
Its viability, T/C is 98.8%.

What about the viability, T/C [8] of the same compound?
Its viability, T/C is 107%.

What about the viability, T/C (second compound 0.3 µM, first compound 0.000316 µM) of the same compound?
The viability, T/C was 97.6%.

And the viability, T/C (second compound 0.3 µM, first compound 0.001 µM)?
The viability, T/C was 111%.

And the viability, T/C [9]?
Its viability, T/C is 110%.

And the viability, T/C [10]?
The viability, T/C was 98.4%.

And the viability, T/C [11]?
The viability, T/C was 110%.

What about the viability, T/C [12] of the same compound?
Its viability, T/C is 111%.

And the viability, T/C (second compound 0.949 µM, first compound 0.000316 µM)?
The viability, T/C was 111%.

And the viability, T/C (second compound 0.949 µM, first compound 0.001 µM)?
Its viability, T/C is 124%.

What about the viability, T/C [13] of the same compound?
The viability, T/C was 121%.

What about the viability, T/C [14] of the same compound?
The viability, T/C was 100%.

What about the viability, T/C [15] of the same compound?
The viability, T/C was 107%.

And the viability, T/C [16]?
Its viability, T/C is 114%.

What about the viability, T/C (second compound 3 µM, first compound 0.000316 µM) of the same compound?
Its viability, T/C is 96.8%.

And the viability, T/C (second compound 3 µM, first compound 0.001 µM)?
The viability, T/C was 98.5%.

And the viability, T/C [17]?
The viability, T/C was 103%.

What about the viability, T/C [18] of the same compound?
The viability, T/C was 98.6%.

And the viability, T/C [19]?
Its viability, T/C is 94.1%.

And the viability, T/C [20]?
Its viability, T/C is 107%.
